# Test results taken from PubChem BioAssay AID1963981 (Molecular Pharmacology Branch, DTP, NCI, 2024).
# System: 354836-022-R-J1-PDC multicell spheroid viability
# Assay: Anticancer human tumor 354836-022-R-J1-PDC patient-derived head and neck squamous cell carcinoma cell line growth inhibition [PI3K]
# Details: for viability, T/C: stronger effect = lower value
# Procedure, shortened: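 Combination activity was assessed by viability in multicellular tumor spheroids carrying HUVEC and MSC components. Agents were tested with PI3K inhibitors from a Cmax-based top dose (or 10 microM) downward in half-log increments.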
# [1] = curve of first compound, second compound 0.0316 µM
# [2] = curve of first compound, second compound 0.1 µM
# [3] = curve of first compound, second compound 0.316 µM
# [4] = curve of first compound, second compound 1 µM
# [5] = second compound 0.0316 µM, first compound 0.0316 µM
# [6] = second compound 0.0316 µM, first compound 0.1 µM
# [7] = second compound 0.0316 µM, first compound 0.316 µM
# [8] = second compound 0.0316 µM, first compound 1 µM
# [9] = second compound 0.0316 µM, first compound 3.16 µM
# [10] = second compound 0.0316 µM, first compound 10 µM
# [11] = second compound 0.1 µM, first compound 0.0316 µM
# [12] = second compound 0.1 µM, first compound 0.1 µM
# [13] = second compound 0.1 µM, first compound 0.316 µM
# [14] = second compound 0.1 µM, first compound 1 µM
# [15] = second compound 0.1 µM, first compound 3.16 µM
# [16] = second compound 0.1 µM, first compound 10 µM
# [17] = second compound 0.316 µM, first compound 0.0316 µM
# [18] = second compound 0.316 µM, first compound 0.1 µM
# [19] = second compound 0.316 µM, first compound 0.316 µM
# [20] = second compound 0.316 µM, first compound 1 µM
# [21] = second compound 0.316 µM, first compound 3.16 µM
# [22] = second compound 0.316 µM, first compound 10 µM
# [23] = second compound 1 µM, first compound 0.0316 µM
# [24] = second compound 1 µM, first compound 0.1 µM
# [25] = second compound 1 µM, first compound 0.316 µM
# [26] = second compound 1 µM, first compound 1 µM
# [27] = second compound 1 µM, first compound 3.16 µM
# [28] = second compound 1 µM, first compound 10 µM
# [29] = curve of first compound, second compound 3.16 µM
# [30] = curve of first compound, second compound 10 µM
# 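Also: spheroids exposed to agents for seven days before the viability read.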
structure (smiles),measurement,setting,value
CNC(=O)c1ccc(N2C(=S)N(c3ccc(C#N)c(C(F)(F)F)c3)C(=O)C2(C)C)cc1F + CC(Nc1ccc2c(c1)OCCn1cc(N3C(=O)OCC3C(F)F)nc1-2)C(N)=O,IC50,"curve of first compound, second compound 0.00316 µM",> 10 µM
same,IC50,"curve of first compound, second compound 0.01 µM",> 10 µM
same,IC50,[1],> 10 µM
same,IC50,[2],> 10 µM
same,IC50,[3],> 10 µM
same,IC50,[4],> 10 µM
same,"viability, T/C","second compound 0.00316 µM, first compound 0.0316 µM",92.3%
same,"viability, T/C","second compound 0.00316 µM, first compound 0.1 µM",99%
same,"viability, T/C","second compound 0.00316 µM, first compound 0.316 µM",104%
same,"viability, T/C","second compound 0.00316 µM, first compound 1 µM",82.8%
same,"viability, T/C","second compound 0.00316 µM, first compound 3.16 µM",97.8%
same,"viability, T/C","second compound 0.00316 µM, first compound 10 µM",84.7%
same,"viability, T/C","second compound 0.01 µM, first compound 0.0316 µM",120%
same,"viability, T/C","second compound 0.01 µM, first compound 0.1 µM",88%
same,"viability, T/C","second compound 0.01 µM, first compound 0.316 µM",94.3%
same,"viability, T/C","second compound 0.01 µM, first compound 1 µM",101%
same,"viability, T/C","second compound 0.01 µM, first compound 3.16 µM",93.5%
same,"viability, T/C","second compound 0.01 µM, first compound 10 µM",84.6%
same,"viability, T/C",[5],92%
same,"viability, T/C",[6],96.7%
same,"viability, T/C",[7],83.1%
same,"viability, T/C",[8],89.4%
same,"viability, T/C",[9],87.9%
same,"viability, T/C",[10],88.2%
same,"viability, T/C",[11],90.8%
same,"viability, T/C",[12],95.2%
same,"viability, T/C",[13],94.2%
same,"viability, T/C",[14],91%
same,"viability, T/C",[15],88.7%
same,"viability, T/C",[16],85.7%
same,"viability, T/C",[17],62.9%
same,"viability, T/C",[18],79.9%
same,"viability, T/C",[19],74.1%
same,"viability, T/C",[20],67.6%
same,"viability, T/C",[21],77.6%
same,"viability, T/C",[22],67.9%
same,"viability, T/C",[23],63.5%
same,"viability, T/C",[24],57.7%
same,"viability, T/C",[25],64.3%
same,"viability, T/C",[26],58.4%
same,"viability, T/C",[27],54.3%
same,"viability, T/C",[28],53.4%
CC1(C)CCC(Nc2ncc(C(F)(F)F)c(-c3c[nH]c4c(P(C)(C)=O)c(C#N)ccc34)n2)CN1 (stereo not drawn) + Cc1nc(NC(=O)N2CCCC2C(N)=O)sc1-c1ccnc(C(C)(C)C(F)(F)F)c1,IC50,[1],< 0.0316 µM
same,IC50,[2],< 0.0316 µM
same,IC50,[3],< 0.0316 µM
same,IC50,[4],< 0.0316 µM
same,IC50,[29],< 0.0316 µM
same,IC50,[30],< 0.0316 µM
same,"viability, T/C",[5],20.2%
same,"viability, T/C",[6],20.2%
same,"viability, T/C",[7],26.7%
same,"viability, T/C",[8],25.1%
same,"viability, T/C",[9],29.1%
same,"viability, T/C",[10],2.24%
same,"viability, T/C",[11],22.8%
same,"viability, T/C",[12],21.6%
same,"viability, T/C",[13],25.9%
same,"viability, T/C",[14],23%
same,"viability, T/C",[15],28.9%
same,"viability, T/C",[16],1.52%
same,"viability, T/C",[17],17.8%
same,"viability, T/C",[18],20%
same,"viability, T/C",[19],19.3%
same,"viability, T/C",[20],25%
same,"viability, T/C",[21],24%
same,"viability, T/C",[22],1.82%
same,"viability, T/C",[23],14.9%
same,"viability, T/C",[24],18%
same,"viability, T/C",[25],14.6%
same,"viability, T/C",[26],20.5%
same,"viability, T/C",[27],20.2%
same,"viability, T/C",[28],1.74%
same,"viability, T/C","second compound 3.16 µM, first compound 0.0316 µM",13.2%
same,"viability, T/C","second compound 3.16 µM, first compound 0.1 µM",15.6%
same,"viability, T/C","second compound 3.16 µM, first compound 0.316 µM",14.9%
same,"viability, T/C","second compound 3.16 µM, first compound 1 µM",15.1%
same,"viability, T/C","second compound 3.16 µM, first compound 3.16 µM",18.4%
same,"viability, T/C","second compound 3.16 µM, first compound 10 µM",1%
same,"viability, T/C","second compound 10 µM, first compound 0.0316 µM",12.7%
same,"viability, T/C","second compound 10 µM, first compound 0.1 µM",10.6%
same,"viability, T/C","second compound 10 µM, first compound 0.316 µM",11.6%
same,"viability, T/C","second compound 10 µM, first compound 1 µM",17.2%
same,"viability, T/C","second compound 10 µM, first compound 3.16 µM",12.3%
same,"viability, T/C","second compound 10 µM, first compound 10 µM",0.79%
Cn1cnc2c(F)c(Nc3ccc(Br)cc3Cl)c(C(=O)NOCCO)cc21 + Cc1nc(NC(=O)N2CCCC2C(N)=O)sc1-c1ccnc(C(C)(C)C(F)(F)F)c1,IC50,[1],> 3 µM
same,IC50,[2],> 3 µM
same,IC50,[3],> 3 µM
same,IC50,[4],> 3 µM
same,IC50,[29],1.1 µM
same,IC50,[30],< 0.00949 µM
same,"viability, T/C","second compound 0.0316 µM, first compound 0.00949 µM",85.6%
same,"viability, T/C","second compound 0.0316 µM, first compound 0.03 µM",82.2%
same,"viability, T/C","second compound 0.0316 µM, first compound 0.0949 µM",90.7%
same,"viability, T/C","second compound 0.0316 µM, first compound 0.3 µM",64.6%
same,"viability, T/C","second compound 0.0316 µM, first compound 0.949 µM",73.7%
same,"viability, T/C","second compound 0.0316 µM, first compound 3 µM",54.3%
same,"viability, T/C","second compound 0.1 µM, first compound 0.00949 µM",96.5%
same,"viability, T/C","second compound 0.1 µM, first compound 0.03 µM",83.1%
same,"viability, T/C","second compound 0.1 µM, first compound 0.0949 µM",82.9%
same,"viability, T/C","second compound 0.1 µM, first compound 0.3 µM",76.3%
same,"viability, T/C","second compound 0.1 µM, first compound 0.949 µM",70.4%
same,"viability, T/C","second compound 0.1 µM, first compound 3 µM",54.4%
same,"viability, T/C","second compound 0.316 µM, first compound 0.00949 µM",79.3%
same,"viability, T/C","second compound 0.316 µM, first compound 0.03 µM",86.2%
same,"viability, T/C","second compound 0.316 µM, first compound 0.0949 µM",80.5%
same,"viability, T/C","second compound 0.316 µM, first compound 0.3 µM",78.2%
same,"viability, T/C","second compound 0.316 µM, first compound 0.949 µM",75.6%
same,"viability, T/C","second compound 0.316 µM, first compound 3 µM",55.7%
same,"viability, T/C","second compound 1 µM, first compound 0.00949 µM",71.7%
same,"viability, T/C","second compound 1 µM, first compound 0.03 µM",75.2%
same,"viability, T/C","second compound 1 µM, first compound 0.0949 µM",78%
same,"viability, T/C","second compound 1 µM, first compound 0.3 µM",58.6%
same,"viability, T/C","second compound 1 µM, first compound 0.949 µM",63.3%
same,"viability, T/C","second compound 1 µM, first compound 3 µM",52%
same,"viability, T/C","second compound 3.16 µM, first compound 0.00949 µM",49.1%
same,"viability, T/C","second compound 3.16 µM, first compound 0.03 µM",58.1%
same,"viability, T/C","second compound 3.16 µM, first compound 0.0949 µM",55.8%
same,"viability, T/C","second compound 3.16 µM, first compound 0.3 µM",46%
same,"viability, T/C","second compound 3.16 µM, first compound 0.949 µM",54.8%
same,"viability, T/C","second compound 3.16 µM, first compound 3 µM",31.7%
same,"viability, T/C","second compound 10 µM, first compound 0.00949 µM",33%
same,"viability, T/C","second compound 10 µM, first compound 0.03 µM",29.7%
same,"viability, T/C","second compound 10 µM, first compound 0.0949 µM",30%
same,"viability, T/C","second compound 10 µM, first compound 0.3 µM",30.4%
same,"viability, T/C","second compound 10 µM, first compound 0.949 µM",25%
same,"viability, T/C","second compound 10 µM, first compound 3 µM",12.6%
Cc1nc(NC(=O)N2CCCC2C(N)=O)sc1-c1ccnc(C(C)(C)C(F)(F)F)c1 (stereo not drawn),"viability, T/C",compound 0.0316 µM,103% [middle of 8 runs]
same,"viability, T/C",compound 0.1 µM,100% [middle of 8 runs]
same,"viability, T/C",compound 1 µM,78.3% [middle of 8 runs]
same,"viability, T/C",compound 3.16 µM,59.7% [middle of 8 runs]
same,"viability, T/C",compound 10 µM,30.9% [middle of 8 runs]
same,IC50,"compound alone, run of 06/12/2023",4.49 µM [middle of 8 runs]
C#Cc1c(F)ccc2cc(O)cc(-c3ncc4c(N5CC6CCC(C5)N6)nc(OCC56CCCN5CC(F)C6)nc4c3F)c12 (stereo not drawn),"viability, T/C",compound 0.0316 µM,101% [middle of 4 runs]
same,"viability, T/C",compound 0.1 µM,101% [middle of 4 runs]
same,"viability, T/C",compound 1 µM,87.7% [middle of 4 runs]
same,"viability, T/C",compound 3.16 µM,95.4% [middle of 4 runs]
same,"viability, T/C",compound 10 µM,90.5% [middle of 4 runs]
same,IC50,curve of compound,> 10 µM
